Source: patent US20080280937A1, “Ligand Conjugates of Vinca Alkaloids, Analogs, and Derivatives” (priority 2005, published 2008)
“Also recorded” adds a separate entry of the source.

Key:
[1] = molecular target: T1, folate receptors (FRs) (Homo sapiens, UniProt P15328); experiment: Relative Affinity Assay (displacement of 3H-folic acid on FR-positive KB cells); type: binding
T1 construct: FR-positive KB cells were heavily seeded into 24-well cell culture plates; endogenous in cells; host or cells: KB cells
Protocol: Relative Affinity Assay. The affinity of the compounds described herein for folate receptors (FRs) relative to folate was determined according to a previously described method (Westerhof, G. R., J. H. Schornagel, et al. (1995) Mol. Pharm. 48: 459-471) with slight modification. Briefly, FR-positive KB cells were heavily seeded into 24-well cell culture plates and allowed to adhere to the plastic for 18 h. Spent incubation media was replaced in designated wells with folate-free RPMI (FFRPMI) supplemented with 100 nM ^3H-folic acid in the absence and presence of increasing concentrations of test article or folic acid. Cells were incubated for 60 min at 37° C. and then rinsed 3 times with PBS, pH 7.4, followed by the addition of 500 μL of 1% SDS in PBS, pH 7.4. Cell lysates were then collected and added to individual vials containing 5 mL of scintillation cocktail, and then counted for radioactivity. Negative control tubes contained only the ^3H-folic acid in FFRPMI (no competitor). Positive control tubes contained a final concentration of 1 mM folic acid, and CPMs measured in these samples (representing non-specific binding of label) were subtracted from all samples.

[2] = tested on: folate receptor-positive KB cells; type: cell-based, human
Protocol: Inhibition of Cellular DNA Synthesis. The compounds described herein were evaluated using an in vitro cytotoxicity assay that predicts the ability of the drug to inhibit the growth of folate receptor-positive KB cells. The compounds were comprised of folate linked to a respective chemotherapeutic drug, as prepared according to the protocols described herein. The KB cells were exposed for predetermined periods of time at 37° C. to the indicated concentrations of folate-drug conjugate in the absence or presence of at least a 100-fold excess of folic acid. The cells were then rinsed with fresh culture medium and incubated in fresh culture medium for 72 hours at 37° C. Cell viability was assessed using a ^3H-thymidine incorporation assay.

[3] = tested on: M109 tumors; experiment: Inhibition of Tumor Growth in Mice, subcutaneous M109 tumors; type: in vivo; details: Balb/c mice
Protocol: Inhibition of Tumor Growth in Mice. The anti-tumor activity of the compounds described herein, when administered intravenously (i.v.) to tumor-bearing animals, was evaluated in Balb/c mice bearing subcutaneous M109 tumors. Approximately 11 days post tumor inoculation in the subcutis of the right axilla with 1×10^6 M109 cells (tumor volume range at t0=between 60 and 80 mm^3), mice (5/group) were injected i.v. three times a week (TIW), for a defined length of time (e.g., 2-3 weeks) with (a) a defined dose level on a per kilogram body weight basis of a drug delivery conjugate described herein, or (b) an equivalent dose volume of PBS (control). Tumor growth was measured using calipers at 2-day or 3-day intervals in each treatment group. Tumor volumes were calculated using the equation V=a×b^2/2, where “a” is the length of the tumor and “b” is the width expressed in millimeters.

[4] = tested on: Folate receptor-negative 4T-1 tumor cells; experiment: 4T-1 Tumor Volume Assay; type: in vivo, Balb/c mice; details: 3 μmol/kg TIW for 3 weeks
Excerpt: 4T-1 Tumor Volume Assay. Six to seven week-old mice (female Balb/c strain) were obtained from Harlan, Inc., Indianapolis, Ind. The mice were maintained on Harlan's folate-free chow for a total of three weeks prior to the onset of and during this experiment. Folate receptor-negative 4T-1 tumor cells (1×10^6 cells per animal) were inoculated in the subcutis of the right axilla. Approximately 5 days post tumor inoculation when the 4T-1 tumor average volume was ˜100 mm^3, mice (5/group) were injected i.v. three times a week (TIW), for 3 weeks with 3 μmol/kg of drug delivery conjugate or with an equivalent dose volume of PBS (control). Tumor growth was measured using calipers at 2-day or 3-day intervals in each treatment group. Tumor volumes were calculated using the equation V=a×b^2/2, where “a” is the length of the tumor and “b” is the width expressed in millimeters.

[5] = Animal Weight Determination
Protocol: Animal Weight Determination. The percentage weight change of the mice was determined in mice (5 mice/group) on the indicated days post-tumor inoculation (PTI) as shown in the graph for the samples described in the related tumor volume assay.

T1 sequence (P15328 25-234): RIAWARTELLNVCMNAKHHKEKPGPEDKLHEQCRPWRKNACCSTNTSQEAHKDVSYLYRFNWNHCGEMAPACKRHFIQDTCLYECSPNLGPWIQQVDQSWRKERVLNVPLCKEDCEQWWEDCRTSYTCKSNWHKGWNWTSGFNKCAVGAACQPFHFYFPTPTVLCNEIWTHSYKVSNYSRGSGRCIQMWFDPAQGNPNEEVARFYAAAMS

CC[C@]1(O)C[C@H]2CN(CCc3c([nH]c4ccccc34)[C@@](C(=O)OC)(c3cc4c(cc3OC)N(C)[C@H]3[C@@](O)(C(=O)NN=CCOCCOCCN5C(=O)CC(SC[C@H](NC(=O)[C@H](CC(=O)O)NC(=O)[C@H](CC(=O)O)NC(=O)[C@H](CCCNC(=N)N)NC(=O)[C@H](CC(=O)O)NC(=O)CC[C@H](NC(=O)c6ccc(NCc7cnc8nc(N)[nH]c(=O)c8n7)cc6)C(=O)O)C(=O)O)C5=O)[C@H](O)[C@]5(CC)C=CCN6CC[C@]43[C@@H]65)C2)C1 (some centres unmarked) [Example 6]
relative binding affinity versus folic acid at folic acid receptors ([1]; figure legends, folic acid = 1.0, 1 hour at 37° C): 0.35
Relative Folate Receptor Affinity ([1]; summary table): 0.31
IC50 ([2]; KB cells, without excess folic acid, read-out: IC50, 3H-thymidine incorporation in KB cells): 0.014 µM
Folate Receptor Competition ([2]; summary table): Yes
competition by excess folic acid of effect on 3H-thymidine incorporation ([2]; with versus without at least 100-fold excess of folic acid): folate competes
growth of M109 tumors ([3]; 1.5 μmol/kg TIW): inhibits the growth of solid tumors
growth of M109 tumors ([3]; 3 μmol/kg TIW for 3 weeks): inhibits the growth of solid M109 tumors
growth of M109 tumors ([3]; 10 μmol/kg TIW for 3 weeks): inhibits the growth of solid tumors
growth of FR-negative 4T-1 tumors [4]: not folate receptor (FR)-negative tumors; also recorded: absence of activity
weight of nu/nu mice ([5]; 5 μmol/kg for 3 weeks (FIG. 16B)): absence of an effect
weight of nu/nu mice ([5]; 10 μmol/kg TIW for 3 weeks (FIG. 5B)): does not affect the weight of the mice; also recorded: absence of an effect
weight of mice ([5]; 10 μmol/kg TIW for 3 weeks (FIG. 7B)): absence of an effect
weight of Balb/c mice ([5]; 10 μmol/kg for 3 weeks (FIG. 14B)): absence of an effect
weight of nu/nu mice ([5]; 1, 5, and 10 μmol/kg TIW for 3 weeks (FIG. 6B)): little effect on the weight of the mice; also recorded: absence of an effect
